Patent US20210323977A1, “PYRROLIDINYL AMIDE COMPOUNDS FOR THE TREATMENT OF AUTOIMMUNE DISEASE” (Hoffmann-La Roche Inc., priority 2018, published 2021)

Biological target: T1, human TLR9 (Homo sapiens, UniProt Q9NR96)
T1 sequence (Q9NR96 26-1032): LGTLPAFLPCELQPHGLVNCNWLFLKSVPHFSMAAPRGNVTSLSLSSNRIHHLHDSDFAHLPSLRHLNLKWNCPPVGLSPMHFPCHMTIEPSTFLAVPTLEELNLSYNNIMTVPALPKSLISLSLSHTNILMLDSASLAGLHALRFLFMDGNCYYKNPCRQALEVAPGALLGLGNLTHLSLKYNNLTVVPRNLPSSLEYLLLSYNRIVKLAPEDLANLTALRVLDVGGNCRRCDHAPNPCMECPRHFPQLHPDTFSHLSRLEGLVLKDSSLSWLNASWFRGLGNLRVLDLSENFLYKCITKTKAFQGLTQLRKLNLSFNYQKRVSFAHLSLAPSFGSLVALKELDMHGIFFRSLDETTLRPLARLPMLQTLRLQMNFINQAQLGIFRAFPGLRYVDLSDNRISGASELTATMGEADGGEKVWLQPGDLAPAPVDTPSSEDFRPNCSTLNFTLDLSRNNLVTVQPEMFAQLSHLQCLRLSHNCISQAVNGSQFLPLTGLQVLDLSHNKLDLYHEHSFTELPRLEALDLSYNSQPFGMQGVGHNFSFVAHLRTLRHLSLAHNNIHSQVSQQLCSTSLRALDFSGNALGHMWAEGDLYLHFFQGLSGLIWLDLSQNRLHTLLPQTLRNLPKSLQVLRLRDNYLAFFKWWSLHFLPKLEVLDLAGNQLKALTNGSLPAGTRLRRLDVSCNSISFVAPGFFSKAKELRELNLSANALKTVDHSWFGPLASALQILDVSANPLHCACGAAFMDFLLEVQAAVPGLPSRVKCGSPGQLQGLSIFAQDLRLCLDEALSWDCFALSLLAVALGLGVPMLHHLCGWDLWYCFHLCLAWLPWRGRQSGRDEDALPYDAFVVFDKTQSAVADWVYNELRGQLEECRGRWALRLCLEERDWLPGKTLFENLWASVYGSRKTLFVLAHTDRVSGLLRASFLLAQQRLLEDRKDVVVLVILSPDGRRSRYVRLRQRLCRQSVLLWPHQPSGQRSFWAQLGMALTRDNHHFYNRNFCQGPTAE
Test: HEK293-Blue-hTLR-9 cells assay
Assay type: cell-based
Settings: HEK293-Blue-hTLR9 cells, SEAP reporter, ODN2006 stimulation, 20 hrs
Text: HEK293-Blue-hTLR-9 Cells Assay:
A stable HEK293-Blue-hTLR-9 cell line was purchased from InvivoGen (Cat. #: hkb-htlh9, San Diego, Calif., USA). These cells were originally designed for studying the stimulation of human TLR9 by monitoring the activation of NF-κB. A SEAP (secreted embryonic alkaline phosphatase) reporter gene was placed under the control of the IFN-β minimal promoter fused to five NF-κB and AP-1-binding sites. The SEAP was induced by activating NF-κB and AP-1 via stimulating HEK-Blue hTLR9 cells with TLR9 ligands. Therefore the reporter expression was declined by TLR9 antagonist under the stimulation of a ligand, such as ODN2006 (Cat. #: tlrl-2006-1, Invivogen, San Diego, Calif., USA), for incubation of 20 hrs. The cell culture supernatant SEAP reporter activity was determined using QUANTI-Blue™ kit (Cat. #: rep-qb1, Invivogen, San Diego, Calif., USA) at a wavelength of 640 nm, a detection medium that turns purple or blue in the presence of alkaline phosphatase.
HEK293-Blue-hTLR9 cells were incubated at a density of 250,000-450,000 cells/mL in a volume of 170 μL in a 96-well plate in Dulbecco's Modified Eagle's medium (DMEM) containing 4.5 g/L glucose, 50 U/mL penicillin, […], […], 2 mM L-glutamine, 10% (v/v) heat-inactivated fetal bovine serum with addition of 20 sL test compound in a serial dilution in the presence of final DMSO at 1% and 10 sL of 20 uM ODN2006 in above DMEM, perform incubation under 37° C. in a CO2 incubator for 20 hrs. Then 20 sL of the supernatant from each well was incubated with 180 μL Quanti-blue substrate solution at 37° C. for 2 hrs and the absorbance was read at 620-655 nm using a spectrophotometer. The signalling pathway that TLR9 activation leads to downstream NF-x3B activation has been widely accepted, and therefore similar reporter assay was modified for evaluating TLR9 antagonist.

Going from `O=C(NC1CC2COCC(C1)N2)C1CN(c2ccc(C(F)(F)F)c3nccnc23)CC12CC2` (stereo not shown) [Example 6, N-(3-oxa-9-azabicyclo[3.3.1]nonan-7-yl)-5-[8-(trifluoromethyl)quinoxalin-5-yl]-5-azaspiro[2.4]heptane-7-carboxamide] to `O=C(NC1CC2CCC(C1)N2)C1CN(c2ccc(C(F)(F)F)c3nccnc23)CC12CC2` (stereo not shown) [Example 23, N-(8-azabicyclo[3.2.1]octan-3-yl)-5-[8-(trifluoromethyl)quinoxalin-5-yl]-5-azaspiro[2.4]heptane-7-carboxamide], the IC50 rises from 1.4 µM to 10.4 µM (7.4-fold). The first is the more potent here.

First: O=C(NC1C2CCCC1CNC2)C1CN(c2ccc(C(F)(F)F)c3nccnc23)CC12CC2 (stereo not shown) [Example 8, N-(3-azabicyclo[3.3.1]nonan-9-yl)-5-[8-(trifluoromethyl)quinoxalin-5-yl]-5-azaspiro[2.4]heptane-7-carboxamide]
Second: O=C(NC1C2CCC1CNC2)C1CN(c2ccc(C(F)(F)F)c3nccnc23)CC12CC2 (stereo not shown) [Example 12, N-(3-azabicyclo[3.2.1]octan-8-yl)-5-[8-(trifluoromethyl)quinoxalin-5-yl]-5-azaspiro[2.4]heptane-7-carboxamide]
The IC50 of the first is 8.3-fold higher: 8.3 µM for the first, 1 µM for the second.

`O=C(NC1CC2CCCC(C1)N2)C1CN(c2ccc(C(F)(F)F)c3nccnc23)CC12CC2` (stereo not shown) [Example 10, N-(9-azabicyclo[3.3.1]nonan-3-yl)-5-[8-(trifluoromethyl)quinoxalin-5-yl]-5-azaspiro[2.4]heptane-7-carboxamide] and `NC1CC(NC(=O)C2CN(c3ccc(C(F)(F)F)c4nccnc34)CC23CC3)C1` (stereo not shown) [Example 38, N-(3-Aminocyclobutyl)-5-[8-(trifluoromethyl)quinoxalin-5-yl]-5-azaspiro[2.4]heptane-7-carboxamide] are within 1.5-fold of each other in IC50: 9.5 µM for the first, 12.3 µM for the second.

First: CN1CCC(NC(=O)C2CN(c3ccc(C(F)(F)F)c4nccnc34)CC23CC3)CC1 (stereo not shown) [Example 11, N-(1-methyl-4-piperidyl)-5-[8-(trifluoromethyl)quinoxalin-5-yl]-5-azaspiro[2.4]heptane-7-carboxamide]
Second: N[C@H]1CC[C@H](NC(=O)C2CN(c3ccc(C(F)(F)F)c4nccnc34)CC23CC3)CC1 (stereo partly shown) [Example 24, N-(4-aminocyclohexyl)-5-[8-(trifluoromethyl)quinoxalin-5-yl]-5-azaspiro[2.4]heptane-7-carboxamide]
The IC50 of the first is 28-fold lower: 1 µM for the first, 27.8 µM for the second.

First: N#Cc1ccc(N2CC(C(=O)NCC3CNCCO3)C3(CC3)C2)c2nccnc12 (stereo not shown) [Example 13, 5-(8-Cyanoquinoxalin-5-yl)-N-(morpholin-2-ylmethyl)-5-azaspiro[2.4]heptane-7-carboxamide]
Second: NC1CC(CNC(=O)C2CN(c3ccc(C(F)(F)F)c4nccnc34)CC23CC3)C1 (stereo not shown) [Example 31, N-[(3-aminocyclobutyl)methyl]-5-[8-(trifluoromethyl)quinoxalin-5-yl]-5-azaspiro[2.4]heptane-7-carboxamide]
The IC50 of the first is 4.4-fold lower: 2.1 µM for the first, 9.3 µM for the second. The first is the more potent here.

Compared with `O=C(NC1CC2CNCC(C2)C1)C1CN(c2ccc(C(F)(F)F)c3nccnc23)CC12CC2` (stereo not shown) [Example 15, N-(3-azabicyclo[3.3.1]nonan-7-yl)-5-[8-(trifluoromethyl)quinoxalin-5-yl]-5-azaspiro[2.4]heptane-7-carboxamide], `O=C(NC1CC2CNCC2C1)C1CN(c2ccc(C(F)(F)F)c3nccnc23)CC12CC2` (stereo not shown) [Example 21, N-(1,2,3,3a,4,5,6,6a-octahydrocyclopenta[c]pyrrol-5-yl)-5-[8-(trifluoromethyl)quinoxalin-5-yl]-5-azaspiro[2.4]heptane-7-carboxamide] is 1.9-fold higher in IC50: 7.3 µM for the first, 14 µM for the second. The first is the more potent here.

`C[C@H]1CN(c2ccc(C#N)c3ncccc23)C[C@@H]1C(=O)NC1CCN(C)CC1` [Example 16, (3R,4R)-1-(8-cyano-5-quinolyl)-4-methyl-N-(1-methyl-4-piperidyl)pyrrolidine-3-carboxamide] and `C[C@H]1CN(c2ccc([N+](=O)[O-])c3ncccc23)C[C@@H]1C(=O)NC1CCN(C)CC1` [Example 27, (3R,4R)-4-Methyl-N-(1-methyl-4-piperidyl)-1-(8-nitro-5-quinolyl)pyrrolidine-3-carboxamide] are within 1.5-fold of each other in IC50: 4.6 µM for the first, 4.5 µM for the second.

First: CN1CCC(NC(=O)C2CN(c3ccc(C#N)c4ncccc34)CC2C(F)(F)F)CC1 (stereo not shown) [Example 18, 1-(8-Cyano-5-quinolyl)-N-(1-methyl-4-piperidyl)-4-(trifluoromethyl)pyrrolidine-3-carboxamide]
Second: N#Cc1ccc(N2C[C@H](C(=O)NC3CCN(C4CCNCC4)CC3)[C@@H](C(F)(F)F)C2)c2nccnc12 [Example 35, (3R,4R)-1-(8-Cyanoquinoxalin-5-yl)-N-[1-(4-piperidyl)-4-piperidyl]-4-(trifluoromethyl)pyrrolidine-3-carboxamide]
The IC50 of the first is 2.5-fold higher: 10.8 µM for the first, 4.3 µM for the second. The second is the more potent here.

Going from `CN1CC(NC(=O)C2CN(c3ccc(C(F)(F)F)c4nccnc34)CC23CC3)C2(CC2)C1` (stereo not shown) [Example 20, N-(5-methyl-5-azaspiro[2.4]heptan-7-yl)-5-[8-(trifluoromethyl)quinoxalin-5-yl]-5-azaspiro[2.4]heptane-7-carboxamide] to `NC1CC2(C1)CC(NC(=O)C1CN(c3ccc(C(F)(F)F)c4nccnc34)CC13CC3)C2` (stereo not shown) [Example 22, N-(6-aminospiro[3.3]heptan-2-yl)-5-[8-(trifluoromethyl)quinoxalin-5-yl]-5-azaspiro[2.4]heptane-7-carboxamide], the IC50 falls from 13.1 µM to 8.2 µM (1.6-fold).

Going from `C[C@@H]1CN(c2ccc(C(F)(F)F)c3nccnc23)C[C@H]1C(=O)NC1CCN(C)CC1` [Example 25, (3S,4S)-4-Methyl-N-(1-methyl-4-piperidyl)-1-[8-(trifluoromethyl)quinoxalin-5-yl]pyrrolidine-3-carboxamide] to `Cc1ccc(N2C[C@H](C(=O)NC3CCN(C)CC3)[C@@H](C)C2)c2nccnc12` [Example 33, (3R,4R)-4-Methyl-N-(1-methyl-4-piperidyl)-1-(8-methylquinoxalin-5-yl)pyrrolidine-3-carboxamide], the IC50 rises from 13.9 µM to 30.2 µM (2.2-fold).

Going from `CN(C)CC1CC(NC(=O)C2CN(c3ccc(C(F)(F)F)c4nccnc34)CC23CC3)C1` (stereo not shown) [Example 26, N-[3-[(dimethylamino)methyl]cyclobutyl]-5-[8-(trifluoromethyl)quinoxalin-5-yl]-5-azaspiro[2.4]heptane-7-carboxamide] to `N[C@H]1CC[C@@H](NC(=O)C2CN(c3ccc(C(F)(F)F)c4nccnc34)CC23CC3)CC1` (stereo partly shown) [Example 39, N-(4-Aminocyclohexyl)-5-[8-(trifluoromethyl)quinoxalin-5-yl]-5-azaspiro[2.4]heptane-7-carboxamide], the IC50 rises from 11.5 µM to 21.1 µM (1.8-fold). The first is the more potent here.

`O=C(NC1CC2(CCNCC2)C1)C1CN(c2ccc(C(F)(F)F)c3nccnc23)CC12CC2` (stereo not shown) [Example 34, N-(7-azaspiro[3.5]nonan-2-yl)-5-[8-(trifluoromethyl)quinoxalin-5-yl]-5-azaspiro[2.4]heptane-7-carboxamide] and `N[C@@H]1C[C@H](NC(=O)C2CN(c3ccc(C(F)(F)F)c4nccnc34)CC23CC3)[C@@H]2C[C@@H]21` (stereo partly drawn) [Example 36, N-[(1R,2S,4R,5S)-4-amino-2-bicyclo[3.1.0]hexanyl]-5-[8-(trifluoromethyl)quinoxalin-5-yl]-5-azaspiro[2.4]heptane-7-carboxamide] are within 1.5-fold of each other in IC50: 16.7 µM for the first, 21.8 µM for the second.

For `C[C@H]1CN(c2ccc(C#N)n3nccc23)C[C@@H]1C(=O)NC1CCN(C)CC1` [Example 44, (3R,4R)-1-(7-cyanopyrazolo[1,5-a]pyridin-4-yl)-4-methyl-N-(1-methyl-4 piperidyl)pyrrolidine-3-carboxamide], the IC50 was 9.1 µM.
